Literature values in paper PMC4067310, “From Pan-Reactive KV7 Channel Opener to Subtype Selective Opener/Inhibitor by Addition of a Methyl Group” (PLoS ONE, 2014).
Changes are numbered by the printed parent chain.

Key:
KV7.4 = target: T1, KV7.4 (Homo sapiens, UniProt P56696); parameters: method as in PMID 20011514; settings: +40 mV; cited from earlier work
T1 construct: expressed in transfected cells; host or cells: Xenopus laevis oocytes injected with cRNA (pGEM-HE vector)
T1 sequence (P56696 1-695): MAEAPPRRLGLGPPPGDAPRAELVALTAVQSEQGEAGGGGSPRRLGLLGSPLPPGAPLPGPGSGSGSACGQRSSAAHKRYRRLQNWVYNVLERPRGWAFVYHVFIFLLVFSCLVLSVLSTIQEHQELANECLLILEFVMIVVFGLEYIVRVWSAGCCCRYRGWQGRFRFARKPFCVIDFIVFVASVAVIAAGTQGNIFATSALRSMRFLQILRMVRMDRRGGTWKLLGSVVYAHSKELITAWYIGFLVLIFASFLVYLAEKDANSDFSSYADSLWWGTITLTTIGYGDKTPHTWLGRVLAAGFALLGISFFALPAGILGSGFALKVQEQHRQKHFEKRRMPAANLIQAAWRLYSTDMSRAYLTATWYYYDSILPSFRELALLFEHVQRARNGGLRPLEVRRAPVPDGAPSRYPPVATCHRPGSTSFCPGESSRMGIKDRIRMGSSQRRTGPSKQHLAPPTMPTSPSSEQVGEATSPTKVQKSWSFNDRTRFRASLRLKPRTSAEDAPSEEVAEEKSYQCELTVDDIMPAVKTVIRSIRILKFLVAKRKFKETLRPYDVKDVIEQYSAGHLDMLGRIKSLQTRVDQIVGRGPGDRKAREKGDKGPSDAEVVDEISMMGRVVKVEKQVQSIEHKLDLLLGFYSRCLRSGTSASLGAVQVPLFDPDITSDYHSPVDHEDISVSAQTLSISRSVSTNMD

KV7.2-W236L = target: T2, KV7.2-W236L (Homo sapiens, UniProt O43526, W236L); parameters: method as in PMID 20011514; settings: all activating effects lost; cited from earlier work
T2 construct: expressed in transfected cells; host or cells: Xenopus laevis oocytes injected with cRNA (pGEM-HE vector)

KV7.4-W242L = target: T3, KV7.4-W242L (Homo sapiens, UniProt P56696, W242L); settings: cited from earlier work
T3 construct: expressed in transfected cells; host or cells: Xenopus laevis oocytes injected with cRNA (pGEM-HE vector)
T3 sequence (P56696 1-695 W242L): T1 sequence (P56696 1-695) with W242L

T2 sequence (O43526 whole entry W236L): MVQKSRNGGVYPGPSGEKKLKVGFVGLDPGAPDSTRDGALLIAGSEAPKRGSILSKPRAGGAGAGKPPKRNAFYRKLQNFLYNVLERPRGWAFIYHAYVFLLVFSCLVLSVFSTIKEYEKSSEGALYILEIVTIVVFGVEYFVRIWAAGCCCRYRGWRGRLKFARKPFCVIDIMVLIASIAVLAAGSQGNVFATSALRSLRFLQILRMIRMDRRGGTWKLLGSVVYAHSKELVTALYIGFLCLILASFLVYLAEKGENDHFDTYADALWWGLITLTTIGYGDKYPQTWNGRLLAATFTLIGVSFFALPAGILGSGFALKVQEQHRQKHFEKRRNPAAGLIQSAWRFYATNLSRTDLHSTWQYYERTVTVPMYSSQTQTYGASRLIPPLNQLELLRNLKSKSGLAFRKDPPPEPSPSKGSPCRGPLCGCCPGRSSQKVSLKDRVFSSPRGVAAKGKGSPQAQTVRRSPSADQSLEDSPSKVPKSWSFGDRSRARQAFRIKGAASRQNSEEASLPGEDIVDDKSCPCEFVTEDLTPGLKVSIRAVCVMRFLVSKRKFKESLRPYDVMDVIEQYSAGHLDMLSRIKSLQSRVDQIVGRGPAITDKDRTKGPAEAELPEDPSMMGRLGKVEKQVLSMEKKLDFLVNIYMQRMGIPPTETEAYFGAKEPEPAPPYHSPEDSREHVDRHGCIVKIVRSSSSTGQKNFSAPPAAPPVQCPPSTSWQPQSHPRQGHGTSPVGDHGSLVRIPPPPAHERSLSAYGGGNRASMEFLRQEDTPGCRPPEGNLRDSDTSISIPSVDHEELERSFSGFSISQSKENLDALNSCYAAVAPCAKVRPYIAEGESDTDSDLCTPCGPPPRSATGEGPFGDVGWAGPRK

## C[C@H](NC(=O)/C=C/c1ccccc1F)c1ccc2c(c1)N(CC1CC1)CCO2 [(S)-2]
KV7.4
  efficacy, current amplitude % of control: 1927 % of control
KV7.2-W236L
  effect on KV7.2-W236L: purely inhibitory
KV7.4-W242L
  effect on KV7.4-W242L: fully insensitive
